Test results from PubChem BioAssay (NCI).
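Grown in 96-well plates, cells were treated for 48 hours with each compound at five concentrations. Insufficient inhibition: endpoint recorded as highest concentration tested. GI50 is the concentration that inhibits growth by half. Definition used: TGI = concentration required for complete inhibition of growth.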

Legend:
Test in all cases: inhibition of tumour cell growth, NCI panel, 48 h
[1] = tested on: 786-0 renal
[2] = tested on: A498 renal
[3] = tested on: A549 NSCLC
[4] = tested on: ACHN renal
[5] = tested on: BT-549 breast
[6] = tested on: CAKI-1 renal
[7] = tested on: CCRF-CEM leukemia
[8] = tested on: COLO 205 colon
[9] = tested on: DU-145 prostate
[10] = tested on: EKVX NSCLC
[11] = tested on: HCC-2998 colon
[12] = tested on: HCT-116 colon
[13] = tested on: HCT-15 colon
[14] = tested on: HL-60(TB) leukemia
[15] = tested on: HOP-62 NSCLC
[16] = tested on: HOP-92 NSCLC
[17] = tested on: HS 578T breast
[18] = tested on: HT29 colon
[19] = tested on: IGROV1 ovarian
[20] = tested on: K-562 leukemia
[21] = tested on: KM12 colon
[22] = tested on: LOX IMVI melanoma
[23] = tested on: M14 melanoma
[24] = tested on: MALME-3M melanoma
[25] = tested on: MCF7 breast
[26] = tested on: MDA-MB-231 breast
[27] = tested on: MDA-MB-435
[28] = tested on: MDA-MB-468 breast
[29] = tested on: MOLT-4 leukemia
[30] = tested on: NCI-H226 lung
[31] = tested on: NCI-H23 lung
[32] = tested on: NCI-H460 lung
[33] = tested on: NCI-H522 lung
[34] = tested on: NCI/ADR-RES ovarian
[35] = tested on: OVCAR-3 ovarian
[36] = tested on: OVCAR-4 ovarian
[37] = tested on: OVCAR-5 ovarian
[38] = tested on: OVCAR-8 ovarian
[39] = tested on: PC-3 prostate
[40] = tested on: RPMI-8226 leukemia
[41] = tested on: RXF 393 renal
[42] = tested on: SF-268 CNS
[43] = tested on: SF-295 CNS
[44] = tested on: SF-539 CNS
[45] = tested on: SK-MEL-2 melanoma
[46] = tested on: SK-MEL-28 melanoma
[47] = tested on: SK-MEL-5 melanoma
[48] = tested on: SK-OV-3 ovarian
[49] = tested on: SN12C renal
[50] = tested on: SNB-19 CNS
[51] = tested on: SNB-75 CNS
[52] = tested on: SR leukemia
[53] = tested on: SW-620 colon
[54] = tested on: T-47D breast
[55] = tested on: TK-10 renal
[56] = tested on: U251 CNS
[57] = tested on: UACC-257 melanoma
[58] = tested on: UACC-62 melanoma
[59] = tested on: UO-31 renal

Structure (SMILES): COc1cc(Cn2c(C(F)(F)F)cc3c(Cl)ncnc32)ccn1
- GI50 [1]: 10.6 µM
- TGI [1]: 25.9 µM
- GI50 [2]: 16 µM
- TGI [2]: 30.8 µM
- GI50 [3]: 16.4 µM
- TGI [3]: 38.4 µM
- GI50 [4]: 14.4 µM
- TGI [4]: 28.8 µM
- GI50 [5]: 1.63 µM
- TGI [5]: 3.16 µM
- GI50 [6]: 7.32 µM
- TGI [6]: 20.6 µM
- GI50 [7]: 3.14 µM
- TGI [7]: 18.6 µM
- GI50 [8]: 15.3 µM
- TGI [8]: 46.3 µM
- GI50 [9]: 1.76 µM
- TGI [9]: 3.22 µM
- GI50 [10]: 7.95 µM
- TGI [10]: 23.9 µM
- GI50 [11]: 1.78 µM
- TGI [11]: 3.27 µM
- GI50 [12]: 1.74 µM
- TGI [12]: 4.3 µM
- GI50 [13]: 3.09 µM
- GI50 [14]: 2.14 µM
- TGI [14]: 7.28 µM
- GI50 [15]: 14.3 µM
- TGI [15]: 29.7 µM
- GI50 [16]: 10.7 µM
- TGI [16]: 30.3 µM
- GI50 [17]: 3.13 µM
- TGI [17]: 16.6 µM
- GI50 [18]: 14.1 µM
- TGI [18]: 41.3 µM
- GI50 [19]: 1.78 µM
- TGI [19]: 3.62 µM
- GI50 [20]: 2.36 µM
- TGI [20]: > 100 µM
- GI50 [21]: 13.5 µM
- TGI [21]: 30.5 µM
- GI50 [22]: 1.67 µM
- TGI [22]: 3.17 µM
- GI50 [23]: 1.52 µM
- TGI [23]: 4.16 µM
- GI50 [24]: 12.6 µM
- TGI [24]: 25.5 µM
- GI50 [25]: 5.12 µM
- TGI [25]: 19.8 µM
- GI50 [26]: 3.33 µM
- TGI [26]: 12.6 µM
- GI50 [27]: 3.26 µM
- TGI [27]: 14.6 µM
- GI50 [28]: 1.78 µM
- TGI [28]: 3.77 µM
- GI50 [29]: 3.3 µM
- TGI [29]: > 100 µM
- GI50 [30]: 15.5 µM
- TGI [30]: 32.3 µM
- GI50 [31]: 2.19 µM
- TGI [31]: 4.91 µM
- GI50 [32]: 2.69 µM
- TGI [32]: 8.19 µM
- GI50 [33]: 3.28 µM
- TGI [33]: 15.3 µM
- GI50 [34]: 15.3 µM
- TGI [34]: 33.7 µM
- GI50 [35]: 2.32 µM
- TGI [35]: 7.05 µM
- GI50 [36]: 12 µM
- TGI [36]: 26.7 µM
- GI50 [37]: 16 µM
- TGI [37]: 32.4 µM
- GI50 [38]: 11.4 µM
- TGI [38]: 26.6 µM
- GI50 [39]: 5.56 µM
- TGI [39]: 20.8 µM
- GI50 [40]: 15.4 µM
- TGI [40]: 78.6 µM
- GI50 [41]: 7.9 µM
- TGI [41]: 22.4 µM
- GI50 [42]: 2.47 µM
- TGI [42]: 9.37 µM
- GI50 [43]: 16.8 µM
- TGI [43]: 32.5 µM
- GI50 [44]: 13.8 µM
- TGI [44]: 26.7 µM
- GI50 [45]: 9.95 µM
- TGI [45]: 22.5 µM
- GI50 [46]: 4.6 µM
- TGI [46]: 16.1 µM
- GI50 [47]: 3.9 µM
- TGI [47]: 14.1 µM
- GI50 [48]: 17.1 µM
- TGI [48]: 32.3 µM
- GI50 [49]: 9.21 µM
- TGI [49]: 21.5 µM
- GI50 [50]: 11.8 µM
- TGI [50]: 24.1 µM
- GI50 [51]: 1.78 µM
- TGI [51]: 7.27 µM
- GI50 [52]: 3.61 µM
- TGI [52]: > 100 µM
- GI50 [53]: 3.86 µM
- TGI [53]: 16.7 µM
- GI50 [54]: 13.4 µM
- TGI [54]: 61.6 µM
- GI50 [55]: 18.9 µM
- TGI [55]: 46.9 µM
- GI50 [56]: 15 µM
- TGI [56]: 28.9 µM
- GI50 [57]: 8.49 µM
- TGI [57]: 21.7 µM
- GI50 [58]: 8.1 µM
- TGI [58]: 20.6 µM
- GI50 [59]: 8.66 µM
- TGI [59]: 24.1 µM
